Measurements as given in patent US20100184596A1, “METHOD FOR THE CONTROL OF WEEDS IN TURF” (SYNGENTA CROP PROTECTION, INC., priority 2007, published 2010).

Legend:
Type in all cases: in vivo
[1] = tested on: Trifolium repens (clover); test: Weed control via post emergence spray, in bluegrass/fescue mix (Table B5.6)
Method: (§1) The weed control efficacy of the compound of formula I was tested. The compound was applied via post emergence spray to a range of weeds, at various rates and spray treatment treatment regimes. Percentage weed control assessments were taken at various timepoints.

[2] = tested on: Zoysiagrass v. Empire; test: Phytotoxicity in combination with safeners, post emergence spray (Table B4.1); settings: no safener, 100 g ai/ha
Method: The phytotoxicity to turfgrass of the compound of formula I in combination with various safeners was tested. The combinations were applied by post emergence spray application. Percentage phytotoxicity assessments were taken at various timepoints. The safeners tested in these trials were cloquintocet-mexyl, cyprosulfamide, a compound of formula 2.3, and isoxadifen-ethyl.

[3] = tested on: Trifolium repens (white clover); test: Weed control via post emergence spray, in St. Augustinegrass v. Floratam (Table B5.4)
Method: as §1

[4] = tested on: Bermudagrass v. Tifway 419; test: Phytotoxicity via post emergence spray application (Table B2.3)
Method: The phytotoxicity of the compound of formula I to turfgrass species was tested. The compound was applied via post emergence spray to a range of warm and cool season turfgrass species at various rates and spray treatment treatment regimes. Percentage phytotoxicity assessments were taken at various timepoints.

[5] = tested on: Trifolium repens (white clover); test: Weed control of granule formulations, in St. Augustinegrass V. Delmar (Table B6.1)
Method: Two granule formulations were made and tested. Granule A is an inert granule formulation, comprising 99.06 wt % DG Lite 150 granules, 0.14 wt % compound of formula I, 0.50 wt % Sunspray 6N, and 0.30 wt % HiSil 233. The compound of formula I was added to the DG Lite granules while blending in a Continental Rollo-mixer.
Sunspray 6N oil was then sprayed onto the granules, and HiSil added to dry excess liquid and improve granule flowability. The granules were blended in the mixer for 20-30 minutes until homogeneous, and passed through a −12/+60 mesh to remove over and under sized particles.
Granule B is a fertiliser granule formulation, comprising 54.65 wt % urea, 6.63 wt % triple super phosphate, 4.95 wt % potassion chloride, 9.91 wt % huber clay, 7.22 wt % HiSil 233, 0.16 wt % compound of formula I, […] agnique ME 181, 2.07 wt % stepfac 8180, and 11.98 wt % water. […] The remaining HiSil was added and granules dried at 40-60° C., to remove excess liquid. Finally, the granules were passed through a −12/+60 mesh to remove over and under sized particles.
The weed control efficacy of the compound of formula I was tested. […] All treatments were watered-in 1 day after application. Percentage weed control assessments were taken at various timepoints.

SMILES: COCCOCc1nc(C(F)(F)F)ccc1C(=O)C1=C(O)C2CCC(C2)C1=O (centres unmarked) [Formula I, 4-Hydroxy-3-[2-(2-methoxyethoxymethyl)-6-trifluoromethylpyridine-3-carbonyl]-bicyclo[3.2.1]oct-3-en-2-one]
- % control ([1]; 10 g ai/ha, 7 DAT): 0.00%
- % control ([1]; 10 g ai/ha, 14 DAT): 21.25%
- % control ([1]; 10 g ai/ha, 22 DAT): 23.75%
- % control ([1]; 10 g ai/ha, 29 DAT): 8.75%
- % control ([1]; 10 g ai/ha, 46 DAT): 10.00%
- % control ([1]; 20 g ai/ha, 7 DAT): 0.00%
- % control ([1]; 20 g ai/ha, 14 DAT): 22.50%
- % control ([1]; 20 g ai/ha, 22 DAT): 28.75%
- % control ([1]; 20 g ai/ha, 29 DAT): 22.50%
- % control ([1]; 20 g ai/ha, 46 DAT): 28.75%
- % control ([1]; 40 g ai/ha, 7 DAT): 11.25%
- % control ([1]; 40 g ai/ha, 14 DAT): 21.25%
- % control ([1]; 40 g ai/ha, 22 DAT): 22.50%
- % control ([1]; 40 g ai/ha, 29 DAT): 35.00%
- % control ([1]; 40 g ai/ha, 46 DAT): 47.50%
- % control ([1]; 80 g ai/ha, 7 DAT): 17.50%
- % control ([1]; 80 g ai/ha, 14 DAT): 22.50%
- % control ([1]; 80 g ai/ha, 22 DAT): 30.00%
- % control ([1]; 80 g ai/ha, 29 DAT): 52.50%
- % control ([1]; 80 g ai/ha, 46 DAT): 81.25%
- % control ([1]; 160 g ai/ha, 7 DAT): 22.50%
- % control ([1]; 160 g ai/ha, 14 DAT): 27.50%
- % control ([1]; 160 g ai/ha, 22 DAT): 41.25%
- % control ([1]; 160 g ai/ha, 29 DAT): 76.25%
- % control ([1]; 160 g ai/ha, 46 DAT): 91.25%
- % phytotoxicity ([2]; 6 DAT): 11.70%
- % phytotoxicity ([2]; 12 DAT): 63.30%
- % phytotoxicity ([2]; 19 DAT): 68.30%
- % phytotoxicity ([2]; 27 DAT): 51.70%
- % phytotoxicity ([2]; 35 DAT): 40.00%
- % control ([3]; 1 appl, 140 g ai/ha, 5 DAT): 21.67%
- % control ([3]; 1 appl, 140 g ai/ha, 13 DAT): 86.67%
- % control ([3]; 1 appl, 140 g ai/ha, 21 DAT): 85.00%
- % control ([3]; 1 appl, 140 g ai/ha, 27 DAT): 88.33%
- % control ([3]; 1 appl, 140 g ai/ha, 35 DAT): 78.33%
- % control ([3]; 1 appl, 140 g ai/ha, 42 DAT): 76.67%
- % control ([3]; 1 appl, 140 g ai/ha, 61 DAT): 76.67%
- % control ([3]; 1 appl, 280 g ai/ha, 5 DAT): 25.00%
- % control ([3]; 1 appl, 280 g ai/ha, 13 DAT): 91.67%
- % control ([3]; 1 appl, 280 g ai/ha, 21 DAT): 90.00%
- % control ([3]; 1 appl, 280 g ai/ha, 27 DAT): 93.33%
- % control ([3]; 1 appl, 280 g ai/ha, 35 DAT): 91.67%
- % control ([3]; 1 appl, 280 g ai/ha, 42 DAT): 90.00%
- % control ([3]; 1 appl, 280 g ai/ha, 61 DAT): 90.00%
- % control ([3]; 2 appl, 140 g ai/ha, 5 DAT): 25.00%
- % control ([3]; 2 appl, 140 g ai/ha, 13 DAT): 88.33%
- % control ([3]; 2 appl, 140 g ai/ha, 21 DAT): 86.67%
- % control ([3]; 2 appl, 140 g ai/ha, 27 DAT): 91.67%
- % control ([3]; 2 appl, 140 g ai/ha, 35 DAT): 96.00%
- % control ([3]; 2 appl, 140 g ai/ha, 42 DAT): 96.67%
- % control ([3]; 2 appl, 140 g ai/ha, 61 DAT): 100.00%
- % control ([3]; 2 appl, 280 g ai/ha, 5 DAT): 26.67%
- % control ([3]; 2 appl, 280 g ai/ha, 13 DAT): 95.00%
- % control ([3]; 2 appl, 280 g ai/ha, 21 DAT): 93.33%
- % control ([3]; 2 appl, 280 g ai/ha, 27 DAT): 95.00%
- % control ([3]; 2 appl, 280 g ai/ha, 35 DAT): 99.33%
- % control ([3]; 2 appl, 280 g ai/ha, 42 DAT): 100.00%
- % control ([3]; 2 appl, 280 g ai/ha, 61 DAT): 100.00%
- % phytotoxicity ([4]; 1 appl, 140 g ai/ha, 8 DAT): 36.25%
- % phytotoxicity ([4]; 1 appl, 140 g ai/ha, 14 DAT): 28.75%
- % phytotoxicity ([4]; 1 appl, 140 g ai/ha, 29 DAT): 1.25%
- % phytotoxicity ([4]; 1 appl, 140 g ai/ha, 35 DAT): 0.00%
- % phytotoxicity ([4]; 1 appl, 140 g ai/ha, 43 DAT): 0.00%
- % phytotoxicity ([4]; 1 appl, 140 g ai/ha, 51 DAT): 0.00%
- % phytotoxicity ([4]; 1 appl, 140 g ai/ha, 60 DAT): 0.00%
- % phytotoxicity ([4]; 1 appl, 280 g ai/ha, 8 DAT): 35.00%
- % phytotoxicity ([4]; 1 appl, 280 g ai/ha, 14 DAT): 52.50%
- % phytotoxicity ([4]; 1 appl, 280 g ai/ha, 29 DAT): 1.25%
- % phytotoxicity ([4]; 1 appl, 280 g ai/ha, 35 DAT): 0.00%
- % phytotoxicity ([4]; 1 appl, 280 g ai/ha, 43 DAT): 0.00%
- % phytotoxicity ([4]; 1 appl, 280 g ai/ha, 51 DAT): 0.00%
- % phytotoxicity ([4]; 1 appl, 280 g ai/ha, 60 DAT): 0.00%
- % phytotoxicity ([4]; 2 appl, 140 g ai/ha, 8 DAT): 26.25%
- % phytotoxicity ([4]; 2 appl, 140 g ai/ha, 14 DAT): 31.25%
- % phytotoxicity ([4]; 2 appl, 140 g ai/ha, 29 DAT): 0.00%
- % phytotoxicity ([4]; 2 appl, 140 g ai/ha, 35 DAT): 30.00%
- % phytotoxicity ([4]; 2 appl, 140 g ai/ha, 43 DAT): 18.75%
- % phytotoxicity ([4]; 2 appl, 140 g ai/ha, 51 DAT): 7.50%
- % phytotoxicity ([4]; 2 appl, 140 g ai/ha, 60 DAT): 0.00%
- % phytotoxicity ([4]; 2 appl, 280 g ai/ha, 8 DAT): 36.25%
- % phytotoxicity ([4]; 2 appl, 280 g ai/ha, 14 DAT): 52.50%
- % phytotoxicity ([4]; 2 appl, 280 g ai/ha, 29 DAT): 3.75%
- % phytotoxicity ([4]; 2 appl, 280 g ai/ha, 35 DAT): 28.75%
- % phytotoxicity ([4]; 2 appl, 280 g ai/ha, 43 DAT): 22.50%
- % phytotoxicity ([4]; 2 appl, 280 g ai/ha, 51 DAT): 8.75%
- % phytotoxicity ([4]; 2 appl, 280 g ai/ha, 60 DAT): 0.00%
- % control ([5]; Granule A (inert), 112 g ai/ha, 7 DAT): 46.70%
- % control ([5]; Granule A (inert), 112 g ai/ha, 11 DAT): 63.30%
- % control ([5]; Granule A (inert), 112 g ai/ha, 15 DAT): 66.70%
- % control ([5]; Granule A (inert), 112 g ai/ha, 20 DAT): 63.30%
- % control ([5]; Granule A (inert), 112 g ai/ha, 28 DAT): 50.00%
- % control ([5]; Granule A (inert), 280 g ai/ha, 7 DAT): 56.70%
- % control ([5]; Granule A (inert), 280 g ai/ha, 11 DAT): 76.70%
- % control ([5]; Granule A (inert), 280 g ai/ha, 15 DAT): 78.30%
- % control ([5]; Granule A (inert), 280 g ai/ha, 20 DAT): 70.00%
- % control ([5]; Granule A (inert), 280 g ai/ha, 28 DAT): 51.70%
- % control ([5]; Granule B (fertiliser), 112 g ai/ha, 7 DAT): 53.30%
- % control ([5]; Granule B (fertiliser), 112 g ai/ha, 11 DAT): 70.00%
- % control ([5]; Granule B (fertiliser), 112 g ai/ha, 15 DAT): 76.70%
- % control ([5]; Granule B (fertiliser), 112 g ai/ha, 20 DAT): 75.00%
- % control ([5]; Granule B (fertiliser), 112 g ai/ha, 28 DAT): 70.00%
- % control ([5]; Granule B (fertiliser), 280 g ai/ha, 7 DAT): 66.70%
- % control ([5]; Granule B (fertiliser), 280 g ai/ha, 11 DAT): 80.00%
- % control ([5]; Granule B (fertiliser), 280 g ai/ha, 15 DAT): 85.00%
- % control ([5]; Granule B (fertiliser), 280 g ai/ha, 20 DAT): 88.30%
- % control ([5]; Granule B (fertiliser), 280 g ai/ha, 28 DAT): 81.70%
- % control ([5]; Spray, 112 g ai/ha, 7 DAT): 63.30%
- % control ([5]; Spray, 112 g ai/ha, 11 DAT): 78.30%
- % control ([5]; Spray, 112 g ai/ha, 15 DAT): 81.70%
- % control ([5]; Spray, 112 g ai/ha, 20 DAT): 76.70%
- % control ([5]; Spray, 112 g ai/ha, 28 DAT): 76.70%
- % control ([5]; Spray, 280 g ai/ha, 7 DAT): 71.70%
- % control ([5]; Spray, 280 g ai/ha, 11 DAT): 86.70%
- % control ([5]; Spray, 280 g ai/ha, 15 DAT): 90.00%
- % control ([5]; Spray, 280 g ai/ha, 20 DAT): 91.70%
- % control ([5]; Spray, 280 g ai/ha, 28 DAT): 76.70%
